# In US6277825A (priority 1999, dated 2001):
# Where a SMILES comes first, the peptide text is derived from it. Where no end group is shown, it is not given here. [ ]: non-standard residue; d: D form. Gla = N[C@@H](CC(C(=O)O)C(=O)O)C(=O)O
# Test system: NMDA receptor
# Format: binding
# Conditions: not given
row,Compound,IC50
1,"(A^7,10,14)2-17: A^7,10,14 Con G with residue 1 deleted (EEELQANQALIRAKSN; ends and bridges not checked; UniProt P07231 81-97, looked up, variant E7A E10A E14A G1*)",inactive
2,"(A^7,10,14)3-17: A^7,10,14 Con G with residues 1-2 deleted (EELQANQALIRAKSN; ends and bridges not checked; UniProt P07231 81-97, looked up, variant E7A E10A E14A del1-2)",inactive
3,"(A^7,10,14)4-17: A^7,10,14 Con G with residues 1-3 deleted (ELQANQALIRAKSN; ends and bridges not checked; UniProt P07231 81-97, looked up, variant E7A E10A E14A del1-3)",inactive
4,"(A^7,10,14)5-17: A^7,10,14 Con G with residues 1-4 deleted (LQANQALIRAKSN; ends and bridges not checked; UniProt P07231 81-97, looked up, variant E7A E10A E14A del1-4)",inactive
5,"(A^7,10,14)6-17: A^7,10,14 Con G with residues 1-5 deleted (QANQALIRAKSN; ends and bridges not checked; UniProt P07231 81-97, looked up, variant E7A E10A E14A del1-5)",inactive

# Same assay, conditions: read-out: IC50
row,Compound,IC50 [µM]
1,"CC[C@H](C)[C@H](NC(=O)[C@H](CC(C)C)NC(=O)[C@H](C)NC(=O)[C@H](CCC(N)=O)NC(=O)[C@H](CC(N)=O)NC(=O)[C@H](C)NC(=O)[C@H](CCC(N)=O)NC(=O)[C@H](CC(C)C)NC(=O)[C@H](CC(C(=O)O)C(=O)O)NC(=O)[C@H](CC(C(=O)O)C(=O)O)NC(=O)[C@H](CCC(=O)O)NC(=O)CN)C(N)=O [(A^7,10)1-12] (H-GE[Gla][Gla]LQANQALI-NH2; N-terminus assumed)",0.3
2,"CC[C@H](C)[C@H](NC(=O)[C@H](CC(C)C)NC(=O)[C@H](C)NC(=O)[C@H](CCC(N)=O)NC(=O)[C@H](CC(N)=O)NC(=O)[C@H](C)NC(=O)[C@H](CCC(N)=O)NC(=O)[C@H](CC(C)C)NC(=O)[C@H](CC(C(=O)O)C(=O)O)NC(=O)[C@H](CC(C(=O)O)C(=O)O)NC(=O)[C@H](CCC(=O)O)NC(=O)CN)C(=O)N[C@@H](CCCNC(=N)N)C(N)=O [(A^7,10)1-13] (H-GE[Gla][Gla]LQANQALIR-NH2; N-terminus assumed)",0.253
3,"CC[C@H](C)[C@H](NC(=O)[C@H](CC(C)C)NC(=O)[C@H](Cc1ccc(O)cc1)NC(=O)[C@H](CCC(N)=O)NC(=O)[C@H](CC(N)=O)NC(=O)[C@H](C)NC(=O)[C@H](CCC(N)=O)NC(=O)[C@H](CC(C)C)NC(=O)[C@H](CC(C(=O)O)C(=O)O)NC(=O)[C@H](CC(C(=O)O)C(=O)O)NC(=O)[C@H](CCC(=O)O)NC(=O)CN)C(=O)N[C@@H](CCCNC(=N)N)C(=O)N[C@@H](CC(C(=O)O)C(=O)O)C(=O)N[C@@H](CCCCN)C(=O)N[C@@H](CO)C(=O)N[C@@H](CC(N)=O)C(N)=O [A^7, Y^10] (H-GE[Gla][Gla]LQANQYLIR[Gla]KSN-NH2; N-terminus assumed)",0.079
4,CC[C@H](C)[C@H](NC(=O)[C@H](CC(C)C)NC(=O)[C@H](CC(C(=O)O)C(=O)O)NC(=O)[C@H](CCC(N)=O)NC(=O)[C@H](CC(N)=O)NC(=O)[C@H](CC(C(=O)O)C(=O)O)NC(=O)[C@H](CCC(N)=O)NC(=O)[C@H](CC(C)C)NC(=O)[C@H](Cc1ccc(O)cc1)NC(=O)[C@H](CC(C(=O)O)C(=O)O)NC(=O)[C@H](CCC(=O)O)NC(=O)CN)C(=O)N[C@@H](CCCNC(=N)N)C(=O)N[C@@H](CC(C(=O)O)C(=O)O)C(=O)N[C@@H](CCCCN)C(=O)N[C@@H](CO)C(=O)N[C@@H](CC(N)=O)C(N)=O [E^4] (H-GE[Gla]YLQ[Gla]NQ[Gla]LIR[Gla]KSN-NH2; N-terminus assumed),≥ 20
5,CC[C@H](C)[C@H](NC(=O)[C@H](CC(C)C)NC(=O)[C@H](CC(C(=O)O)C(=O)O)NC(=O)[C@H](CCC(N)=O)NC(=O)[C@H](CC(N)=O)NC(=O)[C@H](CC(C(=O)O)C(=O)O)NC(=O)[C@H](CCC(N)=O)NC(=O)[C@H](CC(C)C)NC(=O)[C@H](CC(C(=O)O)C(=O)O)NC(=O)[C@H](Cc1ccc(O)cc1)NC(=O)[C@H](CCC(=O)O)NC(=O)CN)C(=O)N[C@@H](CCCNC(=N)N)C(=O)N[C@@H](CC(C(=O)O)C(=O)O)C(=O)N[C@@H](CCCCN)C(=O)N[C@@H](CO)C(=O)N[C@@H](CC(N)=O)C(N)=O [Y^3] (H-GEY[Gla]LQ[Gla]NQ[Gla]LIR[Gla]KSN-NH2; N-terminus assumed),0.96

# Test system: not given
# Conditions: Frings audiogenic, mouse, tissue homogenate
row,Compound,T1/2 [min]
1,CC[C@H](C)[C@H](NC(=O)[C@H](CC(N)=O)NC(=O)[C@H](CCC(=O)O)NC(=O)[C@H](CCCNC(=N)N)NC(=O)[C@H](C)NC(=O)[C@H](CC(C)C)NC(=O)[C@H](CCC(=O)O)NC(=O)[C@H](C)NC(=O)[C@H](C)NC(=O)[C@H](CCSC)NC(=O)[C@H](CCCCN)NC(=O)[C@H](C)NC(=O)[C@@H](NC(=O)[C@H](CCC(=O)O)NC(=O)[C@H](CCC(=O)O)NC(=O)[C@H](CCC(=O)O)NC(=O)CN)C(C)C)C(=O)N[C@@H](C)C(=O)N[C@@H](CCCCN)C(=O)NCC(=O)N[C@H]1CSSC[C@@H](C(=O)N[C@@H](Cc2ccc(O)cc2)C(=O)N2CCC[C@H]2C(=O)O)NC(=O)[C@H](CC(N)=O)NC(=O)[C@H](C(C)C)NC(=O)[C@H](CCCCN)NC1=O [ECon R],2.4
